In patent publication US8822171B1, “Methods for screening for inhibitors of tau phosphorylation by casein kinase I” (priority 2003, dated 2014):

Tested on: Rat and human cortical neurons
Assay: Amyloid beta treatment of neurons; phosphotyrosine immunoprecipitation and Western blot with tau antibodies
Type: cell-based
Conditions: neurons treated with Aβ peptide for 1-10 min
Protocol: Rat and human cortical neurons were treated with Aβ peptide (25-35) or reverse Aβ peptide (35-25) for 1-10 min. Proteins containing phosphotyrosine were immunoprecipitated and separated by SDS-PAGE. Western blots of heat-stable extracts of neuronal cultures and immunoprecipitates were probed with antibodies to tau.

For “Aβ peptide (25-35) (GSNKGAIIGLM; Amyloid-beta protein 42; UniProt P05067 696-706, looked up, fragment) [amyloid β-peptide fragment 25-35 used to treat rat and human cortical neurons]”, the “increase in phosphotyrosine in tau relative to basal level” value was “approximately four times the basal level” and the “tyrosine phosphorylation of neuronal proteins including tau” value was “increased tyrosine phosphorylation”.
